Experiments:
[1] = system: Lactobacillus casei; assay: Acid production inhibition, broth-tube technique; conditions: single agent
Source text: (§7) The data was compiled through well-known broth tube analysis techniques.

[2] = system: Mixed human oral microorganisms; assay: Acid production inhibition by aldehydes in product vehicles, broth-tube technique; type: cell-based; conditions: 1 to 5 percent aldehyde
Method: (§1) Other in vitro evaluations utilized a broth tube analysis of representative anticaries aldehydes incorporated in the vehicles of this invention against cultures of acid producing microorganisms normally present in the mouth. Standard laboratory procedures were utilized throughout to evaluate the acid production inhibition and growth inhibition over the incubation time of up to 24 hours.
(a)Measured by broth-tube technique.
(§2) In formulating Tables XIII - XIX representative aldehydes having anticaries activity were selected from those tested as summarized in Tables I - XII and incorporated in seven representative types of products. The products included dextrose and sucrose syrups, obtained commercially in food grades, and compressed candy, hard candy, mouthwash, toothpaste and toothpowder. The five latter products also employed food grade and reagent grade ingredients. These products were formulated by well-known and representative recipes for each type of product. The products were formed in batches of approximately 1 pound or 1 liter and contained all their normal constitutents. Aliquots of each products were blended with one of each of the representative aldehydes selected except in the case of hard candy.
(§3) Aliquots of the aldehyde incorporating sugar syrups, confectioneries, and mouthwash formulations were added directly to assay flasks and mixed or dissolved as required. Aqueous extracts of the aldehyde incorporated in toothpaste and toothpowder were prepared and aliquots of the filtrate were added to the assay flasks.
(§4) The assay flasks contained the necessary components for a normal growth response from the organisms employed, Lactobacillus casei ATCC 4646, originally a human oral isolate, Streptococcus spp. K1-R, human caries isolate, and a mixed oral microbial population obtained fresh from saliva on the morning prior to the initiation of each assay incubation period. The assay flask medium was dissolved in distilled water in which was added an equal volume of filter sterilized human saliva to yield a 50 percent saliva-medium combination. The medium contained all normal ingredients such as yeast extract, proteose peptone number 3 (a proprietary formula of Difco Laboratories, Detroit, Michigan) monopotassium phosphate, Tween 80 (polyoxethylene sorbitan monoleate) and water, except a carbon source. This was supplied by the aliquot of the sucrose syrup, dextrose syrup, sucrose in the compressed candy tablet and sucrose in the hard candy product. In addition, an aliquot of sucrose solution concentrate was added to the assay flask as a carbon source for evaluation of mouthwash, toothpaste, and toothpowder vehicles.
(§5) The lower aldehydes such as glycolaldehyde, crystalline dimer; pyruvaldehyde, aqueous syrup; d,1-glyceraldehyde solution and crystalline dimer; and glutaraldehyde, employed as a 50 percent aqueous solution, are water soluble and were employed directly either as powders or aqueous solutions. The C8 to C12, longer chain aliphatic aldehydes, of which decyl and dodecyl (lauric) were selected as representative, are oil soluble and are prepared and added to the products as emulsions with four parts of Tween 20, polyoxethylene sorbitan monolaurate. The aldehyde concentrations in the products were randomly chosen between 1 to 5 percent by weight. Limits for the concentrations were selected to coincide with the data presented in Tables I - XII in order to verify that the anticaries activity of the aldehydes in the product vehicles tested was equivalent to the activity previously established for the aldehydes alone.

[3] = system: Streptococcus sp. FA-1; assay: Acid production inhibition, broth-tube technique; conditions: single agent
Source text: as §7

[4] = system: oral microorganisms; assay: Acid production inhibition in vitro (summary); type: cell-based; conditions: in words, summary of tables
Method: as §1

[5] = system: Streptococcus spp. KI-R; assay: Growth inhibition by aldehydes in product vehicles, pour-plate technique; type: cell-based; conditions: 1 to 5 percent aldehyde
Method: as §1
(§6) (b)Measured by pour-plate technique.
as §2, §3, §4, §5

[6] = system: Mixed human oral microorganisms; assay: as above; type: cell-based; conditions: 1 to 5 percent aldehyde
Method: as §1, §6, §2, §3, §4, §5

[7] = system: Lactobacillus casei ATCC 4646; assay: as above; type: cell-based; conditions: 1 to 5 percent aldehyde
Method: as §1, §6, §2, §3, §4, §5

[8] = In vivo caries evaluation, Osborne-Mendel strain 1 rat; set-up: species or system rat (Osborne-Mendel strain 1); Caries Score, Mean Incidence / Caries Score, Mean Extent: scale not given here; conditions: Table II, 90 days
Source text: Standard laboratory techniques were used to complie the data presented. In each case the aldehyde was incorporated into each specimen's food in a one percent, by weight, quantity, over a period of several weeks. In all cases, caries reduction was noted.
The aldehydes tested in vivo were pyruvaldehyde, d,1-glyceraldehyde, crystalline dimer, glycolaldehyde, octanaldehyde, nonanaldehyde, decanaldehyde, undecylenic aldehyde, and lauric aldehyde. The polyaldehydes tested were dialdehyde starch, dialdehyde starch 50 percent oxidized, dialdehyde starch 90 percent oxidized, and dialdehyde galactomannan gum.
^(a) Agents were incorporated in the diet at a 1 percent level.

[9] = in compressed candy tablet, 2 h incubation
[10] = in compressed candy tablet, 5 h incubation
[11] = in compressed candy tablet, 24 h incubation
[12] = in dextrose syrup, 2 h incubation
[13] = in dextrose syrup, 5 h incubation
[14] = in dextrose syrup, 24 h incubation
[15] = in sucrose syrup, 2 h incubation
[16] = in sucrose syrup, 5 h incubation
[17] = in sucrose syrup, 24 h incubation
[18] = in tooth powder (aqueous extract), 2 h incubation
[19] = in tooth powder (aqueous extract), 5 h incubation
[20] = in tooth powder (aqueous extract), 24 h incubation
[21] = in toothpaste (aqueous extract), 2 h incubation
[22] = in toothpaste (aqueous extract), 5 h incubation
[23] = in toothpaste (aqueous extract), 24 h incubation
[24] = Student's test, 95 percent confidence limit

Compound: O=C[C@H](O)CO (racemic) [d,1-Glyceraldehyde]
- Acid Production Inhibition ([1]; 0.02 percent): 11%
- Acid Production Inhibition ([1]; 0.03 percent): 17%
- Acid Production Inhibition ([1]; 0.04 percent): 22%
- Acid Production Inhibition [2, 9]: 0 Per Cent
- Acid Production Inhibition [2, 10]: 91 Per Cent
- Acid Production Inhibition [2, 11]: 87 Per Cent
- Acid Production Inhibition [2, 12]: 8 Per Cent
- Acid Production Inhibition [2, 13]: 90 Per Cent
- Acid Production Inhibition [2, 14]: 77 Per Cent
- Acid Production Inhibition ([2]; in mouthwash, 2 h incubation): 0 Per cent
- Acid Production Inhibition ([2]; in mouthwash, 5 h incubation): 91 Per cent
- Acid Production Inhibition ([2]; in mouthwash, 24 h incubation): 39 Per cent
- Acid Production Inhibition [2, 15]: 72 Per cent
- Acid Production Inhibition [2, 16]: 93 Per cent
- Acid Production Inhibition [2, 17]: 16 Per cent
- Acid Production Inhibition [2, 18]: 0 Per cent
- Acid Production Inhibition [2, 19]: 48 Per cent
- Acid Production Inhibition [2, 20]: 18 Per cent
- Acid Production Inhibition [2, 21]: 0 Per cent
- Acid Production Inhibition [2, 22]: 0 Per cent
- Acid Production Inhibition [2, 23]: 0 Per cent
- Acid Production Inhibition ([3]; 0.01 percent): 4%
- Acid Production Inhibition ([3]; 0.015 percent): 10%
- Acid Production Inhibition ([3]; 0.02 percent): 21%
- Acid Production Inhibition [4]: excellent acid production inhibition
- Growth Inhibition [5, 9]: 0 Per Cent
- Growth Inhibition [5, 10]: N.S.
- Growth Inhibition [5, 11]: N.S.
- Growth Inhibition [5, 12]: 98 Per Cent
- Growth Inhibition [5, 13]: > 99.99 Per Cent
- Growth Inhibition [5, 14]: > 100 Per Cent
- Growth Inhibition ([5]; in mouthwash, 2 h incubation): > 99.99 Per cent
- Growth Inhibition ([5]; in mouthwash, 5 h incubation): 99.99 Per cent
- Growth Inhibition ([5]; in mouthwash, 24 h incubation): 100 Per cent
- Growth Inhibition [5, 15]: 90 Per cent
- Growth Inhibition [5, 16]: 90 Per cent
- Growth Inhibition [5, 17]: 99 Per cent
- Growth Inhibition [5, 18]: 99.88 Per cent
- Growth Inhibition [5, 19]: 99.99 Per cent
- Growth Inhibition [5, 20]: 100 Per cent
- Growth Inhibition [5, 21]: N.S.
- Growth Inhibition [5, 22]: N.S.
- Growth Inhibition [5, 23]: 0 Per cent
- Growth Inhibition [6, 9]: 99.7 Per Cent
- Growth Inhibition [6, 10]: 99.99 Per Cent
- Growth Inhibition [6, 11]: N.S.
- Growth Inhibition [6, 12]: 97.5 Per Cent
- Growth Inhibition [6, 13]: > 99.99 Per Cent
- Growth Inhibition [6, 14]: 0 Per Cent
- Growth Inhibition ([6]; in mouthwash, 2 h incubation): 95.0 Per cent
- Growth Inhibition ([6]; in mouthwash, 5 h incubation): 99.98 Per cent
- Growth Inhibition ([6]; in mouthwash, 24 h incubation): N.S.
- Growth Inhibition [6, 15]: 96 Per cent
- Growth Inhibition [6, 16]: 99.6 Per cent
- Growth Inhibition [6, 17]: 0 Per cent
- Growth Inhibition [6, 18]: N.S.
- Growth Inhibition [6, 19]: 99.3 Per cent
- Growth Inhibition [6, 20]: N.S.
- Growth Inhibition [6, 21]: 97 Per cent
- Growth Inhibition [6, 22]: N.S.
- Growth Inhibition [6, 23]: 100 Per cent
- Growth Inhibition [7, 9]: N.S.
- Growth Inhibition [7, 10]: N.S.
- Growth Inhibition [7, 11]: 100 Per Cent
- Growth Inhibition [7, 12]: N.S.
- Growth Inhibition [7, 13]: N.S.
- Growth Inhibition [7, 14]: > 99.99 Per Cent
- Growth Inhibition [7, 15]: 0 Per cent
- Growth Inhibition [7, 16]: N.S.
- Growth Inhibition [7, 17]: 99 Per cent
- Growth Inhibition [7, 18]: N.S.
- Growth Inhibition [7, 19]: N.S.
- Growth Inhibition [7, 20]: 99.3 Per cent
- Growth Inhibition [7, 21]: N.S.
- Growth Inhibition [7, 22]: N.S.
- Growth Inhibition [7, 23]: 100 Per cent

Compound: CCCCCCCCCC=O [Decanaldehyde]
- Acid Production Inhibition [2, 9]: 100 Per Cent
- Acid Production Inhibition [2, 10]: 100 Per Cent
- Acid Production Inhibition [2, 11]: 19 Per Cent
- Acid Production Inhibition [2, 12]: 0 Per Cent
- Acid Production Inhibition [2, 13]: 95 Per Cent
- Acid Production Inhibition [2, 14]: 91 Per Cent
- Acid Production Inhibition [2, 15]: 78 Per cent
- Acid Production Inhibition [2, 16]: 94 Per cent
- Acid Production Inhibition [2, 17]: 95 Per cent
- Acid Production Inhibition [2, 21]: 0 Per cent
- Acid Production Inhibition [2, 22]: 0 Per cent
- Acid Production Inhibition [2, 23]: 0 Per cent
- Caries Score, Mean Incidence ([8]; 1 percent in diet, RCD control 19.0 (octan-), 14.1 (nonan-), 17.6 (decan-), 22.3 (undecylenic)): 10.4
- Caries Score, Mean Extent ([8]; 1 percent in diet, RCD control 49.6 (octan-), 34.3 (nonan-), 46.0 (decan-), 54.6 (undecylenic)): 24.1
- Caries Extent Reduction, statistical evaluation [8, 24]: Significant
- Caries Incidence Reduction, statistical evaluation [8, 24]: Significant
- Growth Inhibition [5, 9]: N.S.
- Growth Inhibition [5, 10]: N.S.
- Growth Inhibition [5, 11]: N.S.
- Growth Inhibition [5, 12]: 100 Per Cent
- Growth Inhibition [5, 13]: 100 Per Cent
- Growth Inhibition [5, 14]: 100 Per Cent
- Growth Inhibition [5, 15]: > 99.99 Per cent
- Growth Inhibition [5, 16]: > 99.99 Per cent
- Growth Inhibition [5, 17]: N.S.
- Growth Inhibition [5, 21]: 0 Per cent
- Growth Inhibition [5, 22]: N.S.
- Growth Inhibition [5, 23]: N.S.
- Growth Inhibition [6, 9]: > 99.99 Per Cent
- Growth Inhibition [6, 10]: > 99.99 Per Cent
- Growth Inhibition [6, 11]: 100 Per Cent
- Growth Inhibition [6, 12]: > 99.99 Per Cent
- Growth Inhibition [6, 13]: 100 Per Cent
- Growth Inhibition [6, 14]: 100 Per Cent
- Growth Inhibition [6, 15]: > 99.99 Per cent
- Growth Inhibition [6, 16]: > 99.99 Per cent
- Growth Inhibition [6, 17]: N.S.
- Growth Inhibition [6, 21]: N.S.
- Growth Inhibition [6, 22]: N.S.
- Growth Inhibition [6, 23]: 0 Per cent
- Growth Inhibition [7, 9]: 99.98 Per Cent
- Growth Inhibition [7, 10]: 100 Per Cent
- Growth Inhibition [7, 11]: 100 Per Cent
- Growth Inhibition [7, 12]: 99.7 Per Cent
- Growth Inhibition [7, 13]: 100 Per Cent
- Growth Inhibition [7, 14]: 100 Per Cent
- Growth Inhibition [7, 15]: 99.5 Per cent
- Growth Inhibition [7, 16]: > 99.9 Per cent
- Growth Inhibition [7, 17]: > 99.99 Per cent
- Growth Inhibition [7, 21]: 0 Per cent
- Growth Inhibition [7, 22]: N.S.
- Growth Inhibition [7, 23]: 0 Per cent

Source: patent US4048299A, “Anticaries confectionaries and oral health products” (William Wrigley, Jr. Co., priority 1970, dated 1977)
